Like-named read-outs stand apart in the source and are kept apart here.
What was measured:
G-401 cells = assay: Cell proliferation inhibition experiment using G-401 cells; type: cell-based; conditions: Homo sapiens, 72 h, cultured for 3 days, CellTiter-Glo
Protocol: G-401 cells (derived from malignant rhabdoid tumor) were obtained from the American Type Culture Collection (ATCC). G-401 cells were cultured in McCoy's 5A medium containing 10% fetal bovine serum and 1% penicillin/streptomycin under conditions of 37° C. and 5% CO2.
500 cells per well were seeded in a 384-well plate. One day after seeding, Examples 1 to 35 were added so that the final concentration of DMSO was 0.1%, and the cells were cultured for 3 days. After the culture was completed, the cell viability was measured using CellTiter-Glo Luminescent Cell Viability Assay (Promega, G7570).

[1] = Membrane permeability test (PAMPA); type: in vitro ADME
Protocol: The membrane permeability of the test compound was tested by parallel artificial membrane permeability assay (PAMPA) as follows. 200 μL of System solution (pION Inc.) containing the test compound and 4 μL of GIT Lipid-0 (pION Inc.) were added to the donor plate. 200 μL of Acceptor Sink Buffer (pION Inc.) was added to the acceptor plate. Both plates were overlapped and incubated at 37° C. for 4 hours, after which the UV of the solutions on the acceptor side and donor side was measured using a UV plate reader (190-500 nm). Compounds with poor UV absorption were measured using LC-MS. The permeability coefficient Pe (10^−6 cm/sec) of the drug was calculated using the following equation.

recombinant p300 = recombinant p300 (Homo sapiens (Human), UniProt Q09472); assay: HAT activity inhibition experiment (SensoLyte HAT(p300) Assay Kit); type: biochemical; conditions: recombinant p300, histone H3 peptide, acetyl CoA
Protocol: The HAT activity inhibitory ability of HAT inhibitors was evaluated using SensoLyte HAT(p300) Assay Kit (ANASPEC, AS-72172). Specifically, 7.5 μL of the compound of Examples […] diluted with assay buffer was added to 7.5 μL of recombinant p300 solution diluted 10 times with assay buffer, and the mixture was incubated at room temperature for 10 minutes. 7.5 μL of acetyl CoA solution diluted 10 times with assay buffer and 15 μL of histone H3 peptide diluted 10 times with assay buffer were added thereto, and the mixture was incubated at 37° C. for 30 minutes. 37.5 μL of Stop Solution was added to stop the reaction. 75 μL of p300 Developer solution diluted 50 times with assay buffer was added, and the mixture was incubated at room temperature for 30 minutes under light-shielded conditions. The fluorescence at 513 nm when irradiated with 389 nm excitation light was measured using a multiplate reader.

[2] = pH 5.0, 37° C., read-out: pH 5.0 Pe
[3] = pH 7.4, 37° C., read-out: pH 7.4 Pe

Sequence of recombinant p300 (Q09472 whole entry): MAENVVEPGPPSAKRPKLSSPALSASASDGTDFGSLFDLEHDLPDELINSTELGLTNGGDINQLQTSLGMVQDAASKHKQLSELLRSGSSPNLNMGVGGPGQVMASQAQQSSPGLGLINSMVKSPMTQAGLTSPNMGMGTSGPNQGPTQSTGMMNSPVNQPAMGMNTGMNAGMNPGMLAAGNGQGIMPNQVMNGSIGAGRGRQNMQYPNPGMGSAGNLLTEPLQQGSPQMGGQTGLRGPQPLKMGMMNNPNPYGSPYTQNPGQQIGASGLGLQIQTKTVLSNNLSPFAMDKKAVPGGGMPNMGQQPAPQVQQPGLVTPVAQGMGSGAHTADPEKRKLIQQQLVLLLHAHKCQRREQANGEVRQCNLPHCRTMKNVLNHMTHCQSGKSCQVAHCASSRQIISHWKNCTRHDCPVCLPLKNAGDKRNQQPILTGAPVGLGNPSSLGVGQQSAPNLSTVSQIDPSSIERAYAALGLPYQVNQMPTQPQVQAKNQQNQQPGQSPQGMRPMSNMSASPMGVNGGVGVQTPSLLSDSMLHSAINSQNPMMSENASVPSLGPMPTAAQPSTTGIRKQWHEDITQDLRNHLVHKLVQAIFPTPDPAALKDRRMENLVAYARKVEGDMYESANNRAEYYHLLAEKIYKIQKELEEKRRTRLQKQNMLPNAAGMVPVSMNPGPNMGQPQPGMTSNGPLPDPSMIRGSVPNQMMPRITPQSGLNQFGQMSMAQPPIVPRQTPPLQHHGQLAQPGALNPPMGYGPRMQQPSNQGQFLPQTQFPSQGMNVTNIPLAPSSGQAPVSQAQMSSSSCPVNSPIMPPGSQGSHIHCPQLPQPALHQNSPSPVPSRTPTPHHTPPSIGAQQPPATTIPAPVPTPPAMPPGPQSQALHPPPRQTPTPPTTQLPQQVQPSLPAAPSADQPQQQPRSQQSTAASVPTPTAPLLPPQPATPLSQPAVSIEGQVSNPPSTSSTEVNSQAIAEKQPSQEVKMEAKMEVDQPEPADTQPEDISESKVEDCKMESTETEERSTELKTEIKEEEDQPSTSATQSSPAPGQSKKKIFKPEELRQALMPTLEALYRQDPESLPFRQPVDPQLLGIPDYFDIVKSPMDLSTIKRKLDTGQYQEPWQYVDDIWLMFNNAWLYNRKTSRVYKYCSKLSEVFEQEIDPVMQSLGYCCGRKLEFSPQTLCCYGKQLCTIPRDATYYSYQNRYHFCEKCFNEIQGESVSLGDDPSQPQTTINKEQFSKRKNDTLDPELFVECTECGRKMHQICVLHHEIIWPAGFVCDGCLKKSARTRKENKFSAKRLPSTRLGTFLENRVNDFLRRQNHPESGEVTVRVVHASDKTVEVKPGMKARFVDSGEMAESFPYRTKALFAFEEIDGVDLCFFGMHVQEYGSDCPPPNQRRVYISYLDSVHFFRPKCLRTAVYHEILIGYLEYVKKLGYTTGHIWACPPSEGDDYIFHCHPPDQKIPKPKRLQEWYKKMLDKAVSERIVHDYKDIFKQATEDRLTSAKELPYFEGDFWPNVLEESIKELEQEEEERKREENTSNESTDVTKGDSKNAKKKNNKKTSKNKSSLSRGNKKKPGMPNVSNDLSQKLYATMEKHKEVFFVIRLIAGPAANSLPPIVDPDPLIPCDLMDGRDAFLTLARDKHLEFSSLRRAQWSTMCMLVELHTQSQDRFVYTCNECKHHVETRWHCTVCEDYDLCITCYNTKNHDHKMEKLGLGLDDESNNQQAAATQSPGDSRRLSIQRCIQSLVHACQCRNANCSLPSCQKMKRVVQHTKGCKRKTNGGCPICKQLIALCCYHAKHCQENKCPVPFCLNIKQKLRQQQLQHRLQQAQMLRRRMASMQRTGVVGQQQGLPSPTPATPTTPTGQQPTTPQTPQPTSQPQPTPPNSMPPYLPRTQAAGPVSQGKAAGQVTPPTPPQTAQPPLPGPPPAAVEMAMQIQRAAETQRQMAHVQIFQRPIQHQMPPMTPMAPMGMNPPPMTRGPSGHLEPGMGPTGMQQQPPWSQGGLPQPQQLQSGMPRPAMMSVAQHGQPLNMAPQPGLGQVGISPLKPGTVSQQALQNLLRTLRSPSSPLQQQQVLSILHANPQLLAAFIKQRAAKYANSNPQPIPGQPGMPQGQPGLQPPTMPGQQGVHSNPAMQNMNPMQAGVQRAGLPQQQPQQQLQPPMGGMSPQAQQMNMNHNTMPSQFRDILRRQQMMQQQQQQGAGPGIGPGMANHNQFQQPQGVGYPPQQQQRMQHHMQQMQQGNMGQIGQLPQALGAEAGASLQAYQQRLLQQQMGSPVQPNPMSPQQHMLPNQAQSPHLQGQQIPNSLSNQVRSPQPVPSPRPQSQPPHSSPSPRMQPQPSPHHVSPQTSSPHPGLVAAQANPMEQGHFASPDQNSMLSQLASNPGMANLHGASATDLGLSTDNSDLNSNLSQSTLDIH

Compound | IC50 (G-401 cells) [nM] | Papp at 4 h [1, 2] [×10⁻⁶ cm/s] | Papp at 4 h [1, 3] [×10⁻⁶ cm/s] | IC50 (recombinant p300) [nM]
CN1CC(N(Cc2ccc(F)cn2)C(=O)CN2C(=O)N[C@]3(C[C@@H](F)c4cc(-c5cnn(C(C)(C)C#N)c5)ccc43)C2=O)(C(F)(F)F)C1 [Example 26, 2-{(1′S,3′R)-5′-[1-(2-cyanopropan-2-yl)-1H-pyrazol-4-yl]-3′-fluoro-2,5-dioxo-2′,3′-dihydrospiro[imidazolidine-4,1′-inden]-1-yl}-N-[(5-fluoropyridin-2-yl)methyl]-N-[1-methyl-3-(trifluoromethyl)azetidin-3-yl]acetamide] | 14 | 10.2 | 16.3 | 9.2
CN1CC(N(Cc2ccc(F)cc2)C(=O)CN2C(=O)N[C@]3(C[C@@H](F)c4cc(-c5cnn(C)c5)c(F)cc43)C2=O)(C(F)(F)F)C1 [Example 29, 2-[(1′S,3′R)-3′,6′-difluoro-5′-(1-methyl-1H-pyrazol-4-yl)-2,5-dioxo-2′,3′-dihydrospiro[imidazolidine-4,1′-inden]-1-yl]-N-[(4-fluorophenyl)methyl]-N-[1-methyl-3-(trifluoromethyl)azetidin-3-yl]acetamide] | 17 | 23.9 | 28.3 | 2.8
CN1CC(N(Cc2ccc(F)cn2)C(=O)CN2C(=O)N[C@]3(CCc4cc(-c5cnn(C)c5)ccc43)C2=O)(C(F)(F)F)C1 [Example 21, N-[(5-fluoropyridin-2-yl)methyl]-2-[(1′S)-5′-(1-methyl-1H-pyrazol-4-yl)-2,5-dioxo-2′,3′-dihydrospiro[imidazolidine-4,1′-inden]-1-yl]-N-[1-methyl-3-(trifluoromethyl)azetidin-3-yl]acetamide] | 353 | 6.2 | 21.2 | 52
CN(C)C1(Cn2cc(-c3ccc4c(c3)[C@H](F)C[C@]43NC(=O)N(CC(=O)N(Cc4ccc(F)cc4)C4(C(F)(F)F)COC4)C3=O)cn2)COC1 [Example 22, 2-[(1′S,3′R)-5′-(1-{[3-(dimethylamino)oxetan-3-yl]methyl}-1H-pyrazol-4-yl)-3′-fluoro-2,5-dioxo-2′,3′-dihydrospiro[imidazolidine-4,1′-inden]-1-yl]-N-[(4-fluorophenyl)methyl]-N-[3-(trifluoromethyl)oxetan-3-yl]acetamide] | 68 | 21.2 | 23 | 11
CN1CC(N(Cc2ccc(F)cc2)C(=O)CN2C(=O)N[C@]3(CCc4cc(-c5cnn(C(C)(C)C#N)c5)ccc43)C2=O)(C(F)(F)F)C1 [Example 13, 2-{(1′S)-5′-[1-(2-cyanopropan-2-yl)-1H-pyrazol-4-yl]-2,5-dioxo-2′,3′-dihydrospiro[imidazolidine-4,1′-inden]-1-yl}-N-[(4-fluorophenyl)methyl]-N-[1-methyl-3-(trifluoromethyl)azetidin-3-yl]acetamide] | 20 | 26.2 | 26.9 | 5.2
CN1CC(N(Cc2ccc(F)cc2)C(=O)CN2C(=O)N[C@]3(C[C@@H](F)c4cc(-c5cn(C)nc5F)ccc43)C2=O)(C(F)(F)F)C1 [Example 17, 2-[(1′S,3′R)-3′-fluoro-5′-(3-fluoro-1-methyl-1H-pyrazol-4-yl)-2,5-dioxo-2′,3′-dihydrospiro[imidazolidine-4,1′-inden]-1-yl]-N-[(4-fluorophenyl)methyl]-N-[1-methyl-3-(trifluoromethyl)azetidin-3-yl]acetamide] | 25 | 28.1 | 32.2 | 2.3
CN1CC(N(Cc2ccc(F)cc2)C(=O)CN2C(=O)N[C@]3(CCc4cc(-c5cn(C)nc5F)ccc43)C2=O)(C(F)(F)F)C1 [Example 18, 2-[(1′S)-5′-(3-fluoro-1-methyl-1H-pyrazol-4-yl)-2,5-dioxo-2′,3′-dihydrospiro[imidazolidine-4,1′-inden]-1-yl]-N-[(4-fluorophenyl)methyl]-N-[1-methyl-3-(trifluoromethyl)azetidin-3-yl]acetamide] | 292 | 28.6 | 31.8 | 58.2
CN1CC(N(Cc2ccc(F)cn2)C(=O)CN2C(=O)N[C@]3(C[C@@H](F)c4cc(-c5cnn(C(C)(C)CO)c5)ccc43)C2=O)(C(F)(F)F)C1 [Example 27, 2-{(1′S,3′R)-3′-fluoro-5′-[1-(1-hydroxy-2-methylpropan-2-yl)-1H-pyrazol-4-yl]-2,5-dioxo-2′,3′-dihydrospiro[imidazolidine-4,1′-inden]-1-yl}-N-[(5-fluoropyridin-2-yl)methyl]-N-[1-methyl-3-(trifluoromethyl)azetidin-3-yl]acetamide] | 22 | 0.6 | 3.5 | 6.8
CN1CC(N(Cc2ccc(F)cc2)C(=O)CN2C(=O)N[C@@]3(C[C@H](F)c4cc(-c5cnn(C)c5)c(F)cc43)C2=O)(C(F)(F)F)C1 [Example 28, 2-[(1′R,3'S)-3′,6′-difluoro-5′-(1-methyl-1H-pyrazol-4-yl)-2,5-dioxo-2′,3′-dihydrospiro[imidazolidine-4,1′-inden]-1-yl]-N-[(4-fluorophenyl)methyl]-N-[1-methyl-3-(trifluoromethyl)azetidin-3-yl]acetamide] |  | 25.7 | 30 | 
CN1CC(N(Cc2ccc(F)cc2)C(=O)CN2C(=O)N[C@]3(C[C@@H](F)c4cc(-c5cnn(C)c5F)ccc43)C2=O)(C(F)(F)F)C1 [Example 15, 2-[(1′S,3′R)-3′-fluoro-5′-(5-fluoro-1-methyl-1H-pyrazol-4-yl)-2,5-dioxo-2′,3′-dihydrospiro[imidazolidine-4,1′-inden]-1-yl]-N-[(4-fluorophenyl)methyl]-N-[1-methyl-3-(trifluoromethyl)azetidin-3-yl]acetamide] | 33 | 30 | 33.3 | 6.1
CN1CC(N(Cc2ccc(F)cc2)C(=O)CN2C(=O)N[C@]3(CCc4cc(-c5cnn(C)c5F)ccc43)C2=O)(C(F)(F)F)C1 [Example 16, 2-[(1′S)-5′-(5-fluoro-1-methyl-1H-pyrazol-4-yl)-2,5-dioxo-2′,3′-dihydrospiro[imidazolidine-4,1′-inden]-1-yl]-N-[(4-fluorophenyl)methyl]-N-[1-methyl-3-(trifluoromethyl)azetidin-3-yl]acetamide] | 310 | 29.2 | 32 | 53.6
CN1CC(N(Cc2ccc(C(F)(F)F)cc2)C(=O)CN2C(=O)N[C@]3(C[C@@H](F)c4cc(-c5cnn(C)c5)ccc43)C2=O)(C(F)(F)F)C1 [Example 35, 2-[(1′S,3′R)-3′-fluoro-5′-(1-methyl-1H-pyrazol-4-yl)-2,5-dioxo-2′,3′-dihydrospiro[imidazolidine-4,1′-inden]-1-yl]-N-[1-methyl-3-(trifluoromethyl)azetidin-3-yl]-N-{[4-(trifluoromethyl)phenyl]methyl}acetamide] | 72 | 31.2 | 33.7 | 5.2
CN1CC(N(Cc2ccc(F)cc2)C(=O)CN2C(=O)N[C@]3(C[C@@H](F)c4cc(-c5cnn(C6CCOCC6)c5)ccc43)C2=O)(C(F)(F)F)C1 [Example 19, 2-{(1′S,3′R)-3′-fluoro-5′-[1-(oxan-4-yl)-1H-pyrazol-4-yl]-2,5-dioxo-2′,3′-dihydrospiro[imidazolidine-4,1′-inden]-1-yl}-N-[(4-fluorophenyl)methyl]-N-[1-methyl-3-(trifluoromethyl)azetidin-3-yl]acetamide] | 24 | 24.4 | 28.9 | 7.2
O=C1N[C@]2(CCc3cc(-c4cnn(C5CN(C6COC6)C5)c4)ccc32)C(=O)N1CC(=O)N(Cc1ccc(F)cn1)C1(C(F)(F)F)COC1 [Example 6, N-[(5-fluoropyridin-2-yl)methyl]-2-[(1′S)-5′-{1-[1-(oxetan-3-yl)azetidin-3-yl]-1H-pyrazol-4-yl}-2,5-dioxo-2′,3′-dihydrospiro[imidazolidine-4,1′-inden]-1-yl]-N-[3-(trifluoromethyl)oxetan-3-yl]acetamide] | 391 | 3.1 | 5.5 | 19.8
O=C1N[C@]2(CCc3cc(-c4cnn(C5CN(C6COC6)C5)c4)ccc32)C(=O)N1CC(=O)N(Cc1ccc(F)cn1)C1(C(F)(F)F)CC(F)(F)C1 [Example 8, N-[3,3-difluoro-1-(trifluoromethyl)cyclobutyl]-N-[(5-fluoropyridin-2-yl)methyl]-2-[(1′S)-5′-{1-[1-(oxetan-3-yl)azetidin-3-yl]-1H-pyrazol-4-yl}-2,5-dioxo-2′,3′-dihydrospiro[imidazolidine-4,1′-inden]-1-yl]acetamide] | 247 | 13.5 | 14.3 | 

Source: patent US20250257055A1, “TERTIARY AMIDE DERIVATIVES SUBSTITUTED WITH 4-MEMBERED RING STRUCTURE” (Sumitomo Pharma Co., Ltd., priority 2024, published 2025)
